Legend:
6His-apo-Me2GlyDH = molecular target: T1, 6His-apo-Me2GlyDH (Rattus norvegicus, UniProt Q63342); assay: flavin fluorescence of protein band on SDS-PAGE under UV; type: binding; conditions: covalent; 20 μM FAD, 50 mM Tris-HCl pH 7.5, 5 mM MgCl2, 5 mM ATP, 0.5% Triton X-100, 37°C; stimulated by rat liver mitochondrial matrix
T1 construct: gene Dmgdh; 6His-tagged, E. coli, purified apo-form
T1 sequence (Q63342 44-857): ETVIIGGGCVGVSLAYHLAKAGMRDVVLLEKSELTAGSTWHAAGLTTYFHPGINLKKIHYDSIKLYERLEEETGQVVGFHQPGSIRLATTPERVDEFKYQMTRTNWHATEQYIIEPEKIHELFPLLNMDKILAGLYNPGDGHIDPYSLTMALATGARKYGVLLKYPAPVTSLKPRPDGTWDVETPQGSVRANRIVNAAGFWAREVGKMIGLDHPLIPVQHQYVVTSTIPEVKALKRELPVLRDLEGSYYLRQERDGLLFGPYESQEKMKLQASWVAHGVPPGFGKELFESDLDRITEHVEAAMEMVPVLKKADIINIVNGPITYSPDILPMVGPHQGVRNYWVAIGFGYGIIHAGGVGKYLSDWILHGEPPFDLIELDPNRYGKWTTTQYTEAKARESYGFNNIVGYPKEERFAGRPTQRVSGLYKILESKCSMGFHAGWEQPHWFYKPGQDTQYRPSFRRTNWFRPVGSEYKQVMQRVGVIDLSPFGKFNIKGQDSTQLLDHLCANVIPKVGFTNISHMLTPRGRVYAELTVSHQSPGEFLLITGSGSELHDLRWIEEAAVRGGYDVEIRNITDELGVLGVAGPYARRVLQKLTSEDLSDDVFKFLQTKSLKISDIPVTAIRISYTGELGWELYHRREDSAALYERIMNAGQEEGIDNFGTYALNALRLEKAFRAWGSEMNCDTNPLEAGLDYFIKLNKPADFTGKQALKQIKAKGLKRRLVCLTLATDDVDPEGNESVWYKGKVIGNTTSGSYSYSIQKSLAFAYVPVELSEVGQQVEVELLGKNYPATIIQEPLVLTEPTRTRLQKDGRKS

6His-hFADS2 [1] = molecular target: T2, 6His-hFADS2 (Homo sapiens, UniProt Q8NFF5); assay: as above; type: biochemical; conditions: tightly but not covalently bound, 1 mol FAD per monomer; fluorescence lost on transfer to apo-Me2GlyDH
T2 construct: gene FLAD1; recombinant 6His-tagged cytosolic isoform 2, purified
T2 sequence (Q8NFF5 98-587 limits assumed): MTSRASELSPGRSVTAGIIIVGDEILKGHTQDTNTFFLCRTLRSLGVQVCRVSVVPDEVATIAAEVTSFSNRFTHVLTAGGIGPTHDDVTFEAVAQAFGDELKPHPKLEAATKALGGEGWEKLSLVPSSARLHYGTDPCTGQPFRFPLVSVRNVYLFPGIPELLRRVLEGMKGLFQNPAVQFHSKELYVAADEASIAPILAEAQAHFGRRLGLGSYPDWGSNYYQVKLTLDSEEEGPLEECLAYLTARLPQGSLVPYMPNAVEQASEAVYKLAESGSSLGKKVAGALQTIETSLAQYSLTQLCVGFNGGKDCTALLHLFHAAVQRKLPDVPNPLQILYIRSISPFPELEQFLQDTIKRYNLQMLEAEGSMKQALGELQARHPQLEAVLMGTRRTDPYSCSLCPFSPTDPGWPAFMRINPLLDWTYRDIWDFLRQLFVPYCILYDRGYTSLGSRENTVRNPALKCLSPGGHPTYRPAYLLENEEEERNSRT

6His-hFADS2 [2] = molecular target: T2, 6His-hFADS2; assay: spectrofluorimetric FAD synthesis assay, Dixon plot; type: biochemical; conditions: 50 mM Tris-HCl pH 7.5, 5 mM MgCl2, 37°C; product inhibition: competitive vs FMN, non-competitive vs ATP

SMILES	flavin fluorescence of protein band on SDS-PAGE under UV (6His-apo-Me2GlyDH)	flavin fluorescence of protein band on SDS-PAGE under UV (6His-hFADS2 [1])	spectrofluorimetric FAD synthesis assay, Dixon plot (6His-hFADS2 [2])
Cc1cc2nc3c(=O)[nH]c(=O)nc-3n(C[C@H](O)[C@H](O)[C@H](O)COP(=O)(O)OP(=O)(O)OC[C@H]3O[C@@H](n4cnc5c(N)ncnc54)[C@H](O)[C@@H]3O)c2cc1C [FAD]	mitochondrial matrix is able to stimulate apo-Me2GlyDH flavinylation	hFADS loses its fluorescence upon incubation with apo-Me2GlyDH	–
O=P(O)(O)OP(=O)(O)O [PPi]	–	–	the inhibition by PPi against FMN is consistent with competitive inhibition

Source: PMC4406087, “Remaining challenges in cellular flavin cofactor homeostasis and flavoprotein biogenesis” (Frontiers in Chemistry, 2015)
